Measured values: ChEMBL document CHEMBL1201862, “PubChem BioAssay data set” (2004)
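1) Cells in 96-well plates. 2) Compound, 48 h, 5 concentrations. 3) Linear interpolation between surrounding doses. 4) Unreached endpoint = highest concentration. GI50 = concentration required for 50% inhibition of growth.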 Active and inactive are the calls of the source. No stated cut-off is given here; in the data, active = GI50 up to about 1.1 µM and inactive = higher.

Key:
Experiment in all cases: NCI anticancer screen, dose series, 48 h
HCT-116 = tested on: HCT-116
U-251 = tested on: U-251
OVCAR-5 = tested on: OVCAR-5
HT-29 = tested on: HT-29
SW-620 = tested on: SW-620
NCI-H23 = tested on: NCI-H23
K562 = tested on: K562
HL-60 = tested on: HL-60
786-0 = tested on: 786-0
NCI-H522 = tested on: NCI-H522
CCRF-CEM = tested on: CCRF-CEM
EKVX = tested on: EKVX
SK-MEL-28 = tested on: SK-MEL-28
NCI-H460 = tested on: NCI-H460
SF-268 = tested on: SF-268
PC-3 = tested on: PC-3
ACHN = tested on: ACHN
OVCAR-3 = tested on: OVCAR-3
SR = tested on: SR
HCC 2998 = tested on: HCC 2998
SN12C = tested on: SN12C
HOP-62 = tested on: HOP-62
KM12 = tested on: KM12
SK-MEL-5 = tested on: SK-MEL-5
MCF7 = tested on: MCF7
SF-539 = tested on: SF-539
Malme-3M = tested on: Malme-3M
A549 = tested on: A549
SNB-75 = tested on: SNB-75
MOLT-4 = tested on: MOLT-4
RPMI-8226 = tested on: RPMI-8226
UACC-257 = tested on: UACC-257
NCI-H226 = tested on: NCI-H226
HCT-15 = tested on: HCT-15
OVCAR-8 = tested on: OVCAR-8
SK-MEL-2 = tested on: SK-MEL-2
TK-10 = tested on: TK-10
Hs-578T = tested on: Hs-578T
SF-295 = tested on: SF-295
A498 = tested on: A498
DU-145 = tested on: DU-145
CAKI-1 = tested on: CAKI-1
M14 = tested on: M14
IGROV-1 = tested on: IGROV-1
MDA-MB-231 = tested on: MDA-MB-231
UACC-62 = tested on: UACC-62
COLO 205 = tested on: COLO 205
RXF 393 = tested on: RXF 393
MDA-N = tested on: MDA-N
T47D = tested on: T47D
SK-OV-3 = tested on: SK-OV-3
SNB-19 = tested on: SNB-19
NCI/ADR-RES = tested on: NCI/ADR-RES
UO-31 = tested on: UO-31
MDA-MB-435 = tested on: MDA-MB-435
HOP-92 = tested on: HOP-92
LOX IMVI = tested on: LOX IMVI
OVCAR-4 = tested on: OVCAR-4

For `O=C(CCCn1cnc([N+](=O)[O-])n1)NCCCn1ccnc1[N+](=O)[O-]`, the GI50 (HCT-116) was > 100 µM (inactive), the GI50 (U-251) was > 100 µM (inactive) and the GI50 (OVCAR-5) was > 100 µM (inactive). The GI50 (HT-29) was > 100 µM (inactive), the GI50 (SW-620) was 68.2 µM (inactive) and the GI50 (NCI-H23) was > 100 µM (inactive). For the same molecule, the GI50 (K562) was > 100 µM (inactive), the GI50 (HL-60) was 78.9 µM (inactive) and the GI50 (786-0) was > 100 µM (inactive). For the same molecule, the GI50 (NCI-H522) was > 100 µM (inactive), the GI50 (CCRF-CEM) was > 100 µM (inactive) and the GI50 (EKVX) was > 100 µM (inactive). The GI50 (SK-MEL-28) was > 100 µM (inactive), the GI50 (NCI-H460) was > 100 µM (inactive) and the GI50 (SF-268) was > 100 µM (inactive). The GI50 (PC-3) was > 100 µM (inactive), the GI50 (ACHN) was > 100 µM (inactive) and the GI50 (OVCAR-3) was > 100 µM (inactive). For the same molecule, the GI50 (SR) was > 100 µM (inactive), the GI50 (HCC 2998) was > 100 µM (inactive) and the GI50 (SN12C) was > 100 µM (inactive). The GI50 (HOP-62) was > 100 µM (inactive), the GI50 (KM12) was > 100 µM (inactive) and the GI50 (SK-MEL-5) was 61.8 µM (inactive). For the same molecule, the GI50 (MCF7) was > 100 µM (inactive), the GI50 (SF-539) was > 100 µM (inactive) and the GI50 (Malme-3M) was 83.2 µM (inactive). For the same molecule, the GI50 (A549) was > 100 µM (inactive), the GI50 (SNB-75) was > 100 µM (inactive) and the GI50 (MOLT-4) was > 100 µM (inactive). For the same molecule, the GI50 (RPMI-8226) was > 100 µM (inactive), the GI50 (UACC-257) was > 100 µM (inactive) and the GI50 (NCI-H226) was > 100 µM (inactive). The GI50 (HCT-15) was greater than 100 µM, the GI50 (OVCAR-8) was > 100 µM (inactive) and the GI50 (SK-MEL-2) was 32.4 µM (inactive). For the same molecule, the GI50 (TK-10) was 99.8 µM (inactive), the GI50 (Hs-578T) was > 100 µM (inactive) and the GI50 (SF-295) was > 100 µM (inactive). The GI50 (A498) was 9.35 µM (inactive).
`CC1OC(c2ccc3c(OCc4ccccc4)cccc3c2O)CC(OCc2ccccc2)[C@H]1OCc1ccccc1` (stereo partly drawn) was tested, and the GI50 (DU-145) was > 10 µM (inactive), the GI50 (HT-29) was > 10 µM (inactive) and the GI50 (SW-620) was > 10 µM (inactive). The GI50 (NCI-H23) was > 10 µM (inactive), the GI50 (K562) was > 10 µM (inactive) and the GI50 (HL-60) was > 10 µM (inactive). The GI50 (786-0) was > 10 µM (inactive), the GI50 (CAKI-1) was > 10 µM (inactive) and the GI50 (M14) was > 10 µM (inactive). For the same molecule, the GI50 (CCRF-CEM) was > 10 µM (inactive), the GI50 (EKVX) was > 10 µM (inactive) and the GI50 (SK-MEL-28) was > 10 µM (inactive). For the same molecule, the GI50 (SF-268) was > 10 µM (inactive), the GI50 (PC-3) was > 10 µM (inactive) and the GI50 (IGROV-1) was > 10 µM (inactive). The GI50 (MDA-MB-231) was > 10 µM (inactive), the GI50 (UACC-62) was > 10 µM (inactive) and the GI50 (HCC 2998) was > 10 µM (inactive). The GI50 (COLO 205) was > 10 µM (inactive), the GI50 (SN12C) was > 10 µM (inactive) and the GI50 (HOP-62) was > 10 µM (inactive). The GI50 (KM12) was > 10 µM (inactive), the GI50 (SK-MEL-5) was > 10 µM (inactive) and the GI50 (RXF 393) was > 10 µM (inactive). The GI50 (MCF7) was > 10 µM (inactive), the GI50 (Malme-3M) was > 10 µM (inactive) and the GI50 (A549) was > 10 µM (inactive). The GI50 (SNB-75) was > 10 µM (inactive), the GI50 (MDA-N) was > 10 µM (inactive) and the GI50 (T47D) was > 10 µM (inactive). For the same molecule, the GI50 (MOLT-4) was > 10 µM (inactive), the GI50 (RPMI-8226) was > 10 µM (inactive) and the GI50 (UACC-257) was > 10 µM (inactive). The GI50 (HCT-15) was greater than 10 µM, the GI50 (OVCAR-8) was > 10 µM (inactive) and the GI50 (TK-10) was > 10 µM (inactive). For the same molecule, the GI50 (SF-295) was > 10 µM (inactive) and the GI50 (SK-OV-3) was > 10 µM (inactive).
With `COc1cccc(C(=O)Oc2ccc(OS(=O)(=O)c3ccc(C)cc3)cc2)c1C#N` the GI50 (DU-145) was 93.1 µM (inactive), the GI50 (HCT-116) was 41.7 µM (inactive) and the GI50 (U-251) was > 100 µM (inactive). The GI50 (OVCAR-5) was > 100 µM (inactive), the GI50 (HT-29) was 78.5 µM (inactive) and the GI50 (SW-620) was > 100 µM (inactive). For the same molecule, the GI50 (NCI-H23) was 50.4 µM (inactive), the GI50 (K562) was 43 µM (inactive) and the GI50 (HL-60) was 34.1 µM (inactive). The GI50 (786-0) was 86.9 µM (inactive), the GI50 (CAKI-1) was > 100 µM (inactive) and the GI50 (NCI-H522) was 86.7 µM (inactive). The GI50 (M14) was 47.9 µM (inactive), the GI50 (CCRF-CEM) was 47.5 µM (inactive) and the GI50 (EKVX) was 59.8 µM (inactive). For the same molecule, the GI50 (SNB-19) was > 100 µM (inactive), the GI50 (SK-MEL-28) was > 100 µM (inactive) and the GI50 (NCI-H460) was 49.5 µM (inactive). For the same molecule, the GI50 (SF-268) was > 100 µM (inactive), the GI50 (PC-3) was 43.3 µM (inactive) and the GI50 (IGROV-1) was 29 µM (inactive). The GI50 (MDA-MB-231) was 65.6 µM (inactive), the GI50 (NCI/ADR-RES) was 33 µM (inactive) and the GI50 (ACHN) was 94 µM (inactive). For the same molecule, the GI50 (OVCAR-3) was 29.9 µM (inactive), the GI50 (SR) was 47.9 µM (inactive) and the GI50 (UACC-62) was 87.3 µM (inactive). For the same molecule, the GI50 (UO-31) was 28.3 µM (inactive), the GI50 (COLO 205) was 71.4 µM (inactive) and the GI50 (SN12C) was > 100 µM (inactive). For the same molecule, the GI50 (HOP-62) was > 100 µM (inactive), the GI50 (KM12) was 61.1 µM (inactive) and the GI50 (MDA-MB-435) was 55.5 µM (inactive). The GI50 (SK-MEL-5) was 11.4 µM (inactive), the GI50 (HOP-92) was 41.6 µM (inactive) and the GI50 (RXF 393) was 37.6 µM (inactive). The GI50 (MCF7) was 49.7 µM (inactive), the GI50 (SF-539) was > 100 µM (inactive) and the GI50 (Malme-3M) was 32.4 µM (inactive). The GI50 (A549) was 23.6 µM (inactive), the GI50 (SNB-75) was > 100 µM (inactive) and the GI50 (MDA-N) was 68.2 µM (inactive). The GI50 (T47D) was 20.1 µM (inactive), the GI50 (MOLT-4) was 35.7 µM (inactive) and the GI50 (RPMI-8226) was 36.8 µM (inactive). The GI50 (UACC-257) was 28.6 µM (inactive), the GI50 (LOX IMVI) was > 100 µM (inactive) and the GI50 (NCI-H226) was > 100 µM (inactive). The GI50 (HCT-15) was 74 µM, the GI50 (OVCAR-8) was 66.8 µM (inactive) and the GI50 (SK-MEL-2) was 66.5 µM (inactive). The GI50 (TK-10) was 78.7 µM (inactive), the GI50 (OVCAR-4) was 52.5 µM (inactive) and the GI50 (Hs-578T) was 86.7 µM (inactive). The GI50 (SF-295) was 55.6 µM (inactive).
